According to US10821064B2, “Anti-dandruff agents” (Croda International PLC, priority 2015, dated 2020):

Tests used:
[1] = system: Adult human epidermal keratinocytes (Heka); assay: Keratinocyte cytotoxicity assay (Alamar blue); type: cell-based
Method: Adult human epidermal keratinocytes (Heka) isolated from skin (Invitrogen # C-005-5C) were grown and maintained in 15 mL of EPilife medium (Invitrogen # M-EPI-500) supplemented with HKGS growth supplements (Invitrogen # S-001-5) (0.2% v/v bovine pituitary extract (BPE), 5 μg/mL bovine insulin, 0.18 μg/mL hydrocortisone, 5 μg/mL bovine transferrin, 0.2 ng/mL human epidermal growth factor) and 50 μg/mL gentamicin (Sigma # G1397-10ML) in T75 cm^2 cell culture flasks (VWR # CABD353136) and incubated at 37° C. in a humidified atmosphere of 5% CO2. Growth medium was refreshed every 2 days until the cells reached 50% confluency and then the medium was refreshed every 24 hrs until 80% confluency was obtained.
At 80% confluency, the cells were counted, diluted and plated into 96 well treated cell culture plates (VWR #29442-054) at a cell density of 10000 cells per well in 90 μL of respective growth medium. […]
(§1) All samples were tested in triplicate. […] Fluorescence was monitored using a BioTek Synergy HT plate reader at 530/25 excitation, 590/35 emission and 35 sensitivity at both time zero and 4 hrs after Alamar blue was added. After subtracting the time zero emission 590 nm measurement from the final reading the inferred percentage of microorganism survival relative to vehicle control wells were calculated and the IC50 was determined.

[2] = system: Malassezia furfur (ATCC #38593); assay: Malassezia furfur growth inhibition assay (96-well, Alamar blue); type: cell-based
Method: Malassezia furfur (ATCC #38593) was cultured on Media C agar for 7 days at 37° C. Yeast colonies were then harvested into 0.9% saline sterile diH2O and diluted to approximately 1.5×10^6 CFU/mL using a 0.5 MacFarland standard (Fisher # R20410) to create an assay inoculum. Assay inoculum was added to sterile Media C broth to a final concentration of 4.5×10^4 CFU/mL. Assays were carried out in 96 well plates with a final well volume of 100 μL. Extract fractions and pure compounds were tested in triplicate against each organism. Extract fractions and pure compounds were re-suspended in sterile 20% DMSO. Extract fractions were assayed at two concentrations (50 and 250 μg/mL) with a final well volume concentration of 2% DMSO while pure compounds were serially diluted to generate a range of eight concentrations (128 μg/mL to 1 μg/mL) in a final well volume concentration of 2% DMSO. Each plate contained eight un-inoculated positive controls (media+20% DMSO), eight untreated negative controls (Media+20% DMSO+organism), and one column containing a concentration range of a ketoconazole as a control antibiotic. The assay plate was incubated at 37° C. for 5 days after which growth within the wells were visualised and photographed with a UVP Biospectrum 500 imaging system. Alamar blue was then added to each well at 10% of the culture volume (11 μL in 100 μL). Fluorescence was monitored using a BioTek Synergy HT plate reader at 530/25 excitation, 590/35 emission and 35 sensitivity at both time zero and 4 hrs after Alamar blue was added. After subtracting the time zero emission 590 nm measurement from the final reading the inferred percentage of microorganism survival relative to vehicle control wells were calculated and the IC50 was determined.

[3] = system: Human foreskin BJ fibroblast cells (ATCC CRL-2522); assay: Fibroblast cytotoxicity assay (Alamar blue); type: cell-based
Method: Human foreskin BJ fibroblast cells (ATCC CRL-2522) were grown and maintained in 15 mL of Eagle's minimal essential medium (Sigma M5650) supplemented with 10% fetal bovine serum (VWR # CA95043-976) and […] penicillin and 0.1 mg/mL streptomycin (VWR # CA12001-692) in T75 cm^2 cell culture flasks (VWR # CABD353136) at 37° C. in a humidified atmosphere of 5% CO2. Culture medium was refreshed every two to three days and cells were not allowed to exceed 80% confluency.
At 80% confluency, the cells were counted, diluted and plated into 96 well treated cell culture plates (VWR #29442-054) at a cell density of 10000 cells per well in 90 μL of respective growth medium. All media used for the assay were the same without the addition of antibiotics. The plates were incubated at 37° C. in a humidified atmosphere of 5% CO2 to allow cells to adhere to the plates for 24 hrs before treatment. DMSO was used as the vehicle at a final concentration of 1% in the wells. […]
as §1

[4] = system: M. furfur; assay: Anti-fungal effect against M. furfur in a shampoo type formulation; type: cell-based, Malassezia furfur
Method: Experimentation was carried out to assess the anti-fungal effect of the fumagillin derivative alone and in combination with pseurotin A against M. furfur in a shampoo type formulation.
Compositions of the fumagillin derivative with and without pseurotin A were created and suspended into the baby shampoo. The shampoo mixture was then diluted out into the assay in a similar manner to Head & Shoulders, so that various dilution points in the assay represented multiple sub-inhibitory concentrations of the fumagillin derivative and pseurotin A.

Row | IC50 ([2]; Malassezia furfur, ATCC38593, 120 h, 37° C., 5 days, Alamar blue) [µg/mL] | MIC ([2]; Malassezia furfur, ATCC38593, 120 h, 37° C., 5 days, pure compound 128 to 1 μg/mL) [µg/mL] | MIC ([4]; Malassezia furfur, fumagillin derivative alone, suspended in baby shampoo) [µg/mL] | Structure (SMILES) | IC50 ([1]; Homo sapiens, HEKa, 24 hrs treatment, cytotoxicity) [µg/mL] | Keratinocyte MIC ([1]; human, 24 h) [µg/mL] | IC50 ([3]; Homo sapiens, Fibroblast, 24 hrs treatment, cytotoxicity) [µg/mL] | Fibroblast MIC ([3]; human, 24 h) [µg/mL] | antifungal effect against Malassezia yeasts ([2]; screening of extracts) | antifungal effect against M. furfur ([4]; shampoo type formulation, alone or as mixture at sub-MIC concentrations)
1 | ~0.7 | ~2 | 1.25 | CO[C@@H]1[C@H](OC(=O)/C=C/[C@H]2O[C@@H]2C)CC[C@]2(CO2)[C@H]1[C@@]1(C)O[C@@H]1CC=C(C)C [Fumagillin derivative] | > 64 | >64 | > 64 | >64 | – | –
2 | – | – | – | CC/C=C\[C@H](O)[C@H](O)C1=C(C)C(=O)[C@]2(O1)C(=O)N[C@@](OC)(C(=O)c1ccccc1)[C@@H]2O [Pseurotin A, pseurotin A, reference compound] | – | – | – | – | some activity against M. furfur | antifunimgal effect against M. furfur was observed
